{"source": "patent US4902800A", "about": "“1-Substituted-4-pyrrolidinopiperidines as inhibitors of interleukin 1” (American Home Products Corporation, priority 1988, dated 1990)", "test_system": "IL 1-induced release of neutral protease from rabbit articular chondrocytes", "test": "Inhibition of IL 1-induced release of neutral protease from rabbit articular chondrocytes (azocoll degradation)", "format": "cell-based, rabbit (New Zealand White)", "settings": "Oryctolagus cuniculus, Chondrocyte, test compound 10 min. prior to human IL 1, 24 h after IL 1 stimulation, read-out: % Inhibition (I.S.D.)", "method": "The ability of the compounds of the inventions to inhibit interleukin 1 is measured by the ability of the test compounds to inhibit the IL 1-induced release of neutral protease from rabbit articular chondrocytes.\nMale New Zealand White rabbits are anesthetized with 50 mg/kg of ketamine (i.m.) and killed by an intracardiac injection of 3 mls. of Nembutal. The knee joints of both legs are resected and the articular surfaces are exposed. Cartilage slices are obtained using scalpel and are placed in a tissue culture dish (100 mm diameter) containing 10 mls of Hank's balanced salt solution (HBSS). The chondrocytes within the cartilage slices are then liberated by a series of enzyme digestions. The slices are incubated for 10 min. at 37° C. in 0.05% hyaluronidase (Sigma H-3884), rinsed with HBSS and incubated with 0.2% trypsin (Sigma T-2395) for 10 min. at 37° C. The slices are rinsed again and incubated for 10 mins. at 37° C. with 1.2% collagenase (Sigma C-5138). The slices are then rinsed again with HBSS and resuspended in 10 ml of Ham's F-12 medium containing 10% fetal bovine calf serum (FCS) and 0.2% collagenase and incubated overnight at 37° C. in a 5% CO2 incubator. The next day, the medium containing the digested cartilage fragments and liberated chondrocytes is transferred to a 15 ml centrifuge tube and the cells are collected by centrifugation and washed twice and resuspended in Ham's F-12 medium. The cells are then plated into 24-well tissue culture plates (2×10^5 cells/well) and incubated at 37° C. until confluent (usually 4-6 days).\nThe confluent chondrocytes are rinsed twice with serum-free Ham's F-12 medium and 1 ml is added to each well. Fifty μl of purified human IL 1 (100 Units/ml; Genzyme Corporation, Boston, MA) is then added to stimulate these cells to secrete neutral protease. To measure drug effects, the cells are treated with test compound 10 min. prior to addition of IL 1. The standard screening dose is 10 μM. Twenty-four hours after IL 1 stimulation, supernatant fluids are collected and assayed for neutral protease activity.\nThe neutral protease activity of chondrocyte supernatant fluids is determined by their ability to degrade an insoluble protease substrate, azocoll (Sigma). Supernatants are treated for 10 min. at room temperature with 350 μM p-aminophenylmercuric acetate to activate the latent enzyme. Three hundred μl of supernatant is then mixed with 500 μl of a 20 mg/ml suspension of azocoll and incubated at 37° C. for 18-24 hrs. with gentle rocking. The mixtures are centrifuged and the amount of substrate hydrolyzed is determined by measuring the absorbance of the supernatant at 520 nm.\nDrug effects are calculated as the % change in enzyme activity (absorbance)by supernatants from drug-treated chondrocytes relative to enzyme activity of supernatants from vehicle-treated chondrocytes as follows: [formula]", "data": [{"smiles": "CS(=O)(=O)c1ccc(N2CCC(N3CCCC3)CC2)cc1", "note": "[Example 2, 1-[4-(Methylsulfonyl)phenyl]-4-(1-pyrrolidinyl)piperidine]", "values": [{"measurement": "inhibition at 0.1 µM", "value": 22, "unit": "%"}, {"measurement": "inhibition at 1 µM", "value": 87, "unit": "%"}, {"measurement": "inhibition at 10 µM", "value": 91, "unit": "%"}]}, {"smiles": "N#Cc1ccc(N2CCC(N3CCCC3)CC2)cc1", "note": "[Example 1, 4-[4-(1-Pyrrolidinyl)-1-piperidinyl]benzonitrile]", "values": [{"measurement": "inhibition at 0.1 µM", "value": 48, "unit": "%"}, {"measurement": "inhibition at 1 µM", "value": 57, "unit": "%"}, {"measurement": "inhibition at 10 µM", "value": 26, "unit": "%"}]}]}
